Assay results from patent US10519211B2, “Compounds as peptidic GLP1/glucagon/GIP receptor agonists” (SANOFI, priority 2016, dated 2019).
Numbered stars: 1 amine (or outer) side, 2 acyl side, 3 side chain; on linkers, the order of the positions; unused ones are H or OH. Square brackets hold non-standard residues; d marks the D form. Side chains are listed from the residue outwards. Peptide text beside a SMILES is read from it. * marks the point of attachment. γGlu = O=C(O)[C@H](CCC(=O)[*:2])N[*:1]; Palmitoyl = CCCCCCCCCCCCCCCC(=O)*; Aib = CC(C)(N)C(=O)O

Columns and labels:
Assay type in all cases: physicochemical
[1] = Chemical stability assessment (UPLC-UV, relative purity loss); conditions: 1 mg/ml, 25 mM acetate buffer pH 4.5 with m-cresol (buffer system A)
Summary of the method: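 Peptide at 1 mg/mL (purity-corrected) in 25 mM acetate pH 4.5 with methionine, m-cresol and glycerol, sterile-filtered, stored 28 days at 40° C. Purity measured by UPLC-UV as peptide peak area fraction at start and after storage; value is relative percent purity loss.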

[2] = Thioflavin T (ThT) assay for physical stability (fibrillation); conditions: 3 mg/ml, 100 mM acetate pH 4.5 with m-cresol, shaking at 37° C.
Summary of the method: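 Peptide at 3 mg/ml with 100 μM ThT in 100 mM acetate pH 4.5 with m-cresol, stressed at 37° C by cycles of 10 s shaking at 960 rpm and 50 s rest. Fluorescence read every 20 minutes, eight replicates; lag time in hours.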

[3] = Dynamic light scattering (DLS), hydrodynamic radius as surrogate for interaction parameter kD; conditions: for Delta Rh [nm] = Rh5 − Rh1: DLS buffer system A pH 4.5; for Rh1 [nm] c= 1 mg/ml / Rh5 [nm] c = 5 mg/ml: hydrodynamic radius, DLS buffer system A pH 4.5, DLS method C, 25° C.
Summary of the method: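 Rh and diffusion constant measured in triplicate at 1 and 5 mg/ml peptide in 25 mM acetate pH4.5 with methionine, m-cresol and glycerol, at 25°C, 830 nm, 158°. Rh5<Rh1 or D5>D1 taken as kD>0, indicating repulsive interactions.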

| Chemical stability [relative purity loss 28 days 40° C.] (%) at pH 4.5 [1] [%] | Lag time before increase [2] [h] | Delta Rh [nm] = Rh5 − Rh1 [3] [nm] | Rh1 [nm] c= 1 mg/ml [3] [nm] | Rh5 [nm] c = 5 mg/ml [3] [nm] | SMILES |
| --- | --- | --- | --- | --- | --- |
| 7.4 | >45 |  |  |  | CCCCCCCCCCCCCCCC(=O)N[C@@H](CCC(=O)N[C@@H](CCC(=O)NCCCC[C@H](NC(=O)[C@H](CC(C)C)NC(=O)[C@H](CCCCN)NC(=O)[C@H](CO)NC(=O)[C@H](CC(C)C)NC(=O)[C@H](CC(=O)O)NC(=O)[C@H](CO)NC(=O)[C@@H](NC(=O)[C@H](Cc1ccccc1)NC(=O)[C@@H](NC(=O)CNC(=O)[C@H](CCC(N)=O)NC(=O)C(C)(C)NC(=O)[C@@H](N)Cc1c[nH]cn1)[C@@H](C)O)[C@@H](C)O)C(=O)N[C@@H](CCC(=O)O)C(=O)N[C@@H](CCC(=O)O)C(=O)N[C@@H](CCC(N)=O)C(=O)N[C@@H](CCCNC(=N)N)C(=O)N[C@@H](CCC(N)=O)C(=O)NC(C)(C)C(=O)N[C@@H](CCC(=O)O)C(=O)N[C@@H](Cc1ccccc1)C(=O)N[C@H](C(=O)N[C@@H](CCC(=O)O)C(=O)N[C@@H](Cc1c[nH]c2ccccc12)C(=O)N[C@@H](CC(C)C)C(=O)N[C@@H](CCCCN)C(=O)N[C@@H](C)C(=O)N[C@H](C)C(=O)NCC(=O)N1CCC[C@H]1C(=O)N1CCC[C@H]1C(=O)N[C@@H](CO)C(=O)NC(C)(C)C(=O)N[C@@H](CCCCN)C(=O)N1CCC[C@H]1C(=O)N1CCC[C@H]1C(=O)N1CCC[C@H]1C(=O)N[C@@H](CCCCN)C(N)=O)[C@@H](C)CC)C(=O)O)C(=O)O [SEQ ID NO: 10, H-Aib-Q-G-T-F-T-S-D-L-S-K-L-K[gGlu-gGlu-Palm]-E-E-Q-R-Q-Aib-E-F-I-E-W-L-K-A-dAla-G-P-P-S-Aib-K-P-P-P-K-NH2] (H-H[Aib]QGTFTSDLSKLK([γGlu-γGlu-Palmitoyl])EEQRQ[Aib]EFIEWLKA[dA]GPPS[Aib]KPPPK-NH2) |
| 8.7 | >45 |  |  |  | CCCCCCCCCCCCCCCC(=O)N[C@@H](CCC(=O)N[C@@H](CCC(=O)NCCCC[C@H](NC(=O)[C@H](CC(C)C)NC(=O)[C@H](CCCCN)NC(=O)[C@H](CO)NC(=O)[C@H](CC(C)C)NC(=O)[C@H](CC(=O)O)NC(=O)[C@H](CO)NC(=O)[C@@H](NC(=O)[C@H](Cc1ccccc1)NC(=O)[C@@H](NC(=O)CNC(=O)[C@H](CCC(N)=O)NC(=O)C(C)(C)NC(=O)[C@@H](N)Cc1c[nH]cn1)[C@@H](C)O)[C@@H](C)O)C(=O)N[C@@H](CCC(=O)O)C(=O)N[C@@H](CCC(=O)O)C(=O)N[C@@H](CCC(N)=O)C(=O)N[C@@H](CCCNC(=N)N)C(=O)N[C@@H](CCC(N)=O)C(=O)NC(C)(C)C(=O)N[C@@H](CCC(=O)O)C(=O)N[C@@H](Cc1ccccc1)C(=O)N[C@H](C(=O)N[C@@H](CCC(=O)O)C(=O)N[C@@H](Cc1c[nH]c2ccccc12)C(=O)N[C@@H](CC(C)C)C(=O)N[C@@H](CCCCN)C(=O)N[C@@H](C)C(=O)NCC(=O)NCC(=O)N1CCC[C@H]1C(=O)N1CCC[C@H]1C(=O)N[C@@H](CO)C(=O)NC(C)(C)C(=O)N[C@@H](CCCCN)C(=O)N1CCC[C@H]1C(=O)N1CCC[C@H]1C(=O)N1CCC[C@H]1C(=O)N[C@@H](CCCCN)C(N)=O)[C@@H](C)CC)C(=O)O)C(=O)O [SEQ ID NO: 9, H-Aib-Q-G-T-F-T-S-D-L-S-K-L-K[gGlu-gGlu-Palm]-E-E-Q-R-Q-Aib-E-F-I-E-W-L-K-A-G-G-P-P-S-Aib-K-P-P-P-K-NH2] |

Second part, the compound before the results:

| SMILES | Chemical stability [relative purity loss 28 days 40° C.] (%) at pH 4.5 [1] [%] | Lag time before increase [2] [h] | Delta Rh [nm] = Rh5 − Rh1 [3] [nm] | Rh1 [nm] c= 1 mg/ml [3] [nm] | Rh5 [nm] c = 5 mg/ml [3] [nm] |
| --- | --- | --- | --- | --- | --- |
| CCCCCCCCCCCCCCCC(=O)N[C@@H](CCC(=O)N[C@@H](CCC(=O)NCCCC[C@H](NC(=O)[C@H](CC(C)C)NC(=O)[C@H](CCCCN)NC(=O)[C@H](CO)NC(=O)[C@H](CC(C)C)NC(=O)[C@H](CC(=O)O)NC(=O)[C@H](CO)NC(=O)[C@@H](NC(=O)[C@H](Cc1ccccc1)NC(=O)[C@@H](NC(=O)CNC(=O)[C@H](CCC(N)=O)NC(=O)C(C)(C)NC(=O)[C@@H](N)Cc1c[nH]cn1)[C@@H](C)O)[C@@H](C)O)C(=O)N[C@@H](CCC(=O)O)C(=O)N[C@@H](CCC(=O)O)C(=O)N[C@@H](CCC(N)=O)C(=O)N[C@@H](CCCNC(=N)N)C(=O)N[C@@H](CCC(N)=O)C(=O)NC(C)(C)C(=O)N[C@@H](CCC(=O)O)C(=O)N[C@@H](Cc1ccccc1)C(=O)N[C@H](C(=O)N[C@@H](CCC(=O)O)C(=O)N[C@@H](Cc1c[nH]c2ccccc12)C(=O)N[C@@H](CC(C)C)C(=O)N[C@@H](CCCCN)C(=O)N[C@@H](C)C(=O)NCC(=O)NCC(=O)N[C@@H](Cc1c[nH]cn1)C(=O)N1CCC[C@H]1C(=O)N[C@@H](CO)C(=O)NC(C)(C)C(=O)N[C@@H](CCCCN)C(=O)N1CCC[C@H]1C(=O)N1CCC[C@H]1C(=O)N1CCC[C@H]1C(=O)N[C@@H](CCCCN)C(N)=O)[C@@H](C)CC)C(=O)O)C(=O)O [SEQ ID NO: 8, H-Aib-Q-G-T-F-T-S-D-L-S-K-L-K[gGlu-gGlu-Palm]-E-E-Q-R-Q-Aib-E-F-I-E-W-L-K-A-G-G-H-P-S-Aib-K-P-P-P-K-NH2] | 7.6 | >45 |  |  |  |
| CCCCCCCCCCCCCCCC(=O)N[C@@H](CCC(=O)N[C@@H](CCC(=O)NCCCC[C@H](NC(=O)[C@H](CC(C)C)NC(=O)[C@H](CCCCN)NC(=O)[C@H](CO)NC(=O)[C@H](CC(C)C)NC(=O)[C@H](CC(=O)O)NC(=O)[C@H](CO)NC(=O)[C@@H](NC(=O)[C@H](Cc1ccccc1)NC(=O)[C@@H](NC(=O)CNC(=O)[C@H](CCC(N)=O)NC(=O)C(C)(C)NC(=O)[C@@H](N)Cc1c[nH]cn1)[C@@H](C)O)[C@@H](C)O)C(=O)N[C@@H](CCC(=O)O)C(=O)N[C@@H](CCCCN)C(=O)N[C@@H](CCC(N)=O)C(=O)N[C@@H](CCCNC(=N)N)C(=O)N[C@@H](CCC(N)=O)C(=O)NC(C)(C)C(=O)N[C@@H](CCC(=O)O)C(=O)N[C@@H](Cc1ccccc1)C(=O)N[C@H](C(=O)N[C@@H](CCC(=O)O)C(=O)N[C@@H](Cc1c[nH]c2ccccc12)C(=O)N[C@@H](CC(C)C)C(=O)N[C@@H](CCCCN)C(=O)N[C@@H](C)C(=O)N[C@H](C)C(=O)NCC(=O)N[C@@H](Cc1c[nH]cn1)C(=O)N1CCC[C@H]1C(=O)N[C@@H](CO)C(=O)NC(C)(C)C(=O)N[C@@H](CCCCN)C(=O)N1CCC[C@H]1C(=O)N1CCC[C@H]1C(=O)N1CCC[C@H]1C(=O)N[C@@H](CCCCN)C(N)=O)[C@@H](C)CC)C(=O)O)C(=O)O [SEQ ID NO: 13, H-Aib-Q-G-T-F-T-S-D-L-S-K-L-K[gGlu-gGlu-Palm]-E-K-Q-R-Q-Aib-E-F-I-E-W-L-K-A-dAla-G-H-P-S-Aib-K-P-P-P-K-NH2] (H-H[Aib]QGTFTSDLSKLK([γGlu-γGlu-Palmitoyl])EKQRQ[Aib]EFIEWLKA[dA]GHPS[Aib]KPPPK-NH2) | 4.5 | >45 | −0.3 | 2.8 | 2.5 |
| CCCCCCCCCCCCCCCC(=O)N[C@@H](CCC(=O)N[C@@H](CCC(=O)NCCCC[C@H](NC(=O)[C@H](CC(C)C)NC(=O)[C@H](CCCCN)NC(=O)[C@H](CO)NC(=O)[C@H](CC(C)C)NC(=O)[C@H](CC(=O)O)NC(=O)[C@H](CO)NC(=O)[C@@H](NC(=O)[C@H](Cc1ccccc1)NC(=O)[C@@H](NC(=O)CNC(=O)[C@H](CCC(N)=O)NC(=O)C(C)(C)NC(=O)[C@@H](N)Cc1c[nH]cn1)[C@@H](C)O)[C@@H](C)O)C(=O)N[C@@H](CCC(=O)O)C(=O)N[C@@H](CCCCN)C(=O)N[C@@H](CCC(N)=O)C(=O)N[C@@H](CCCNC(=N)N)C(=O)N[C@@H](CCC(N)=O)C(=O)NC(C)(C)C(=O)N[C@@H](CCC(=O)O)C(=O)N[C@@H](Cc1ccccc1)C(=O)N[C@H](C(=O)N[C@@H](CCC(=O)O)C(=O)N[C@@H](Cc1c[nH]c2ccccc12)C(=O)N[C@@H](CC(C)C)C(=O)N[C@@H](CCCCN)C(=O)N[C@@H](C)C(=O)NCC(=O)NCC(=O)N1CCC[C@H]1C(=O)N1CCC[C@H]1C(=O)N[C@@H](CO)C(=O)NC(C)(C)C(=O)N[C@@H](CCCCN)C(=O)N1CCC[C@H]1C(=O)N1CCC[C@H]1C(=O)N1CCC[C@H]1C(=O)N[C@@H](CCCCN)C(N)=O)[C@@H](C)CC)C(=O)O)C(=O)O [SEQ ID NO: 6, H-Aib-Q-G-T-F-T-S-D-L-S-K-L-K[gGlu-gGlu-Palm]-E-K-Q-R-Q-Aib-E-F-I-E-W-L-K-A-G-G-P-P-S-Aib-K-P-P-P-K-NH2] | 6.9 | >45 | −0.5 | 2.3 | 1.8 |
